Source: the NIST ThermoML archive (doi:10.1016/j.fluid.2015.07.049)
Numbers after ± are expanded uncertainties.

Settings: 313.15 K; Liquid

| SMILES | vapor or sublimation pressure |
| --- | --- |
| CC(C)CC(C)(C)C [2,2,4-trimethylpentane] | 12.94 ± 0.057 kPa |
| CCCCCCC [heptane] | 12.31 ± 0.055 kPa |
| CCCCCO [pentan-1-ol] | 0.898 ± 0.018 kPa |
